# According to patent US8618074B2, “GPCR enhanced neuroprotection to treat brain injury” (Board of Regents of the University of Texas System, priority 2007, dated 2013):
# Tests used:
# astrocytes [1] = assay: Astrocyte survival under t-buOOH oxidative stress in the absence of neurons; assay type: cell-based, mouse
# Description: To determine whether P2Y-R enhanced mitochondrial metabolism in astrocytes affected neuronal resistance to oxidative stress, we prepared co-cultures of neurons and astrocytes using corning transwell-clear permeable supports, which physically separates the two cell-types by ˜1 mm (# 07-200-170, Fisher scientific). Primary cultures of astrocytes were directly prepared in transwell supports until they were ˜70% confluent. Mouse cortical neurons were then cultured onto glass bottom mattek plates and maintained in B-27/Neurobasal Medium to control glia contamination to less than 0.5% (Invitrogen). After four days, co-cultures were treated with t-buOOH (100 μM) for 4 hours with and without pre-stimulation of ATP (2 μM, 10 minutes). Cells were then stained with the DNA intercalating dye Hoechst 33342 (10 μg/ml, Molecular Probes, #H-3570) and calcein AM (2 μM, Molecular Probes, #C3100). […] We then tested the neuroprotective affects of isoform specific purinergic ligands 2-MeSADP(P2Y1-R) and UTP(P2Y2-R). FIG. 6A depicts histogram plots of the percentage of neurons alive when cocultured with young or old astrocytes. FIG. 6B depicts histogram plots of the percentage of neurons alive pretreated with either 2-MeSADP (2 μM) or UTP (50 μM) for 10 min. A ten-minute pre-treatment of astrocytes with either 2-MeSADP (2 μM), or UTP (50 μM) was equally protective against oxidative stress induced cell death. The % neurons alive after 4.5 hours of t-buOOH treatment was 51±4% (n=1664 neurons, pooled from 4 experiments) for untreated controls, 70±2% (n=2541 neurons, pooled from 4 experiments) for 2-MeSADP and 71±3% (n=1189 neurons, pooled from 4 experiments) for UTP treated co-cultures. […] The % astrocytes alive after 4.5 hours of t-buOOH treatment, in the absence of neurons, was 60±4% (n=294 cells) for control, 77±4% (n=294) for 2-MeSADP and 79±3% (n=333) for UTP treated astrocytes.
# It should be noted that stimulation of neuroprotective response in astrocytes is not restricted to signaling through P2Y receptors. For example we have shown that administration of the membrane permeable IP3 analog, IP3BM, is capable of protecting astrocytes from oxidative damage. Thus, it appears possible that any stimulus capable of evoking IP3-mediated calcium release in astrocytes is equally suitable for application in the present treatment methods. To test this possibility, astrocyte cultures subjected to oxidative stress were treated with either 2-MeSADP, or the metabotropic glutamate receptor agonist (1 S, 3 R)-1-aminocyclopentane-1,3-dicarboxylic acid (ACPD), or were left untreated.
# To directly examine the role of IP3 gated Ca^2+ release in P2Y-R enhanced astrocyte protection, we used a membrane permeant butyryloxymethyl ester of IP3 (IP3-BM). Cultures of astrocytes were exposed to IP3-BM and Ca^2+ levels were assessed using 2-photon imaging of Fura 2. Ca^2+ increases in response to IP3-BM application were easily detected, but they occurred over a much slower time course than those initiated by ATP treatment. This was not unexpected because of the slow process of IP3-BM movement across the lipid bilayer as well as the time needed to cleave the ester and accumulate IP3 in the cell. Because of the slower time course, we pretreated astrocytes for 20 minutes prior to exposing them to the oxidant stress t-BuOOH. […] The protective effect of IP3-BM treatment was blocked by the IP3R inhibitor, XeC. […]
# astrocytes [2] = assay: Rose Bengal induced blood clot, Fluo4 Ca2+ imaging of astrocytes in live mouse; assay type: in vivo; details: 2-MeSADP co-injected with Rose Bengal in tail vein; blood brain barrier breakdown at clot
# Description: Our working hypothesis states that P2Y-R activation in astrocytes leads to intracellular Ca^2+ release. […] In this experiment, the Ca^2+ indicator Fluo4-AM was loaded into astrocytes (90 minutes, 100 μM). Rose Bengal (RB) and the P2Y-R specific agonist 2-MeSADP were then co-injected in the tail vein of a live mouse. RB was illuminated with green light (543 nm), inducing reactive singlet oxygen and blood clots. A blood vessel was free flowing at 180 minutes, then clotted around 220 minutes after RB injection. […] More distal astrocytes a4 and a5 were not activated.
# [3] = test system: RB-induced cerebral infarcts in the mouse cortex; assay: RB-induced photothrombotic cerebral infarct size, small animal imaging with PE-Cy5.5 anti-CD40; assay type: in vivo
# Description: These set of experiments utilizes small animal imaging studies to non-invasively study the impact of G-protein stimulated IP3-gated Ca^2+ release on astrocyte neuroprotection during the aging process. In brief, focal cerebral infarcts are induced using photothrombosis as described in EXAMPLE 8. However, irradiation of the brain with green light is carried out through the cranium with a 10× objective. […] We observe the size of the lesion in subsequent days by taking advantage of an inflammatory response at the lesion, which we label with a fluorescently conjugated antibody to CD40 (PE-Cy5.5-anti-mouse-CD40). […] It has also been reported that the PE-Cy5.5 CD40 antibody localized to activated endothelium at the brain lesion and to blood derived cells of the mononuclear lineage. We have successfully used this approach to image RB-induced brain inflammation in mice with high sensitivity and specificity. […] To carry out these experiments, 3 mice were imaged. On the day of the initial photothrombosis, one mouse was injected with Rose Bengal, one with Rose Bengal and 2-MeSADP and the third mouse was injected only with saline. […] For one set of mice, we re-imaged the mice at day 17 post occlusion and found CD40 labeling undetectable in the 2-MeSADP injected mouse. […] Finally, in one mouse, we also injected a fluorescent dye (IR-820) on day 3 that is a strong indicator of blood brain barrier dysfunction. Accumulation of this dye at the site of a lesion is consistent with a permeant (i.e., compromised) blood brain barrier. As noted above small animal imaging has been successfully employed to progressively follow and measure the size of Rose Bengal (RB)-induced brain infarcts in live mice for over 2 weeks.
structure (smiles),measurement,setting,value
CSc1nc(N)c2ncn([C@@H]3O[C@H](COP(=O)(O)OP(=O)(O)O)[C@@H](O)[C@H]3O)c2n1 [2-MeSADP],% astrocytes alive,"astrocytes [1]; absence of neurons, 4.5 hours of t-buOOH, 2-MeSADP or UTP",77±4%
same,astrocyte resistance to oxidative stress,"astrocytes [1]; astrocyte cultures subjected to oxidative stress, versus untreated",enhanced
same,activation (Ca2+) of astrocytes near the RB-induced clot,astrocytes [2],activate nearby astrocytes
same,size of the cerebral infarct,[3]; 2-MeSADP introduced 24 hours later,reduced
same,size of the cerebral infarct,[3]; 2-MeSADP present during the initial photothrombosis (day 0),reduced
same,size of the lesion,"[3]; day 3 after cerebral infarction, co-injected with Rose Bengal, versus Rose Bengal or saline alone",significantly smaller
same,CD40 labeling,[3]; day 17 post occlusion,undetectable
